Measurements from ChEMBL document CHEMBL5252530, “Biological importance of structurally diversified chromenes” (Eur J Med Chem, 2016).
≈ marks a conversion by molar mass, not a printed value.

How the values were obtained:
[1] = tested on: Plasmodium falciparum; assay: Antimalarial activity against chloroquine-susceptible Plasmodium falciparum 3D7; type: functional, organism-based
[2] = tested on: Leishmania major; assay: Antileishmanial activity against Leishmania major promastigotes assessed as inhibition of [3H]thymidine uptake preincubated for 2 hrs followed by addition of [3H]thymidine measured after 18 hrs by scintillation counting; type: functional, organism-based
[3] = tested on: Plasmodium falciparum; assay: Antimalarial activity against chloroquine-resistant Plasmodium falciparum Dd2; type: functional, organism-based
[4] = tested on: KB; assay: Cytotoxicity against human KB cells; type: functional; conditions: read-out: ED50 (the source's name)
[5] = Cytotoxicity against human Lu1 cells; type: functional; conditions: read-out: ED50 (the source's name)
[6] = tested on: LNCaP; assay: Cytotoxicity against human LNCaP cells; type: functional; conditions: read-out: ED50 (the source's name)
[7] = tested on: Col2; assay: Cytotoxicity against human Col2 cells; type: functional; conditions: read-out: ED50 (the source's name)
[8] = target: Acetylcholinesterase (Homo sapiens, UniProt P22303); assay: Inhibition of recombinant human AChE assessed as hydrolysis of acetylthiocholine by Ellman's method
Acetylcholinesterase (Homo sapiens, UniProt P22303), sequence (P22303 whole entry): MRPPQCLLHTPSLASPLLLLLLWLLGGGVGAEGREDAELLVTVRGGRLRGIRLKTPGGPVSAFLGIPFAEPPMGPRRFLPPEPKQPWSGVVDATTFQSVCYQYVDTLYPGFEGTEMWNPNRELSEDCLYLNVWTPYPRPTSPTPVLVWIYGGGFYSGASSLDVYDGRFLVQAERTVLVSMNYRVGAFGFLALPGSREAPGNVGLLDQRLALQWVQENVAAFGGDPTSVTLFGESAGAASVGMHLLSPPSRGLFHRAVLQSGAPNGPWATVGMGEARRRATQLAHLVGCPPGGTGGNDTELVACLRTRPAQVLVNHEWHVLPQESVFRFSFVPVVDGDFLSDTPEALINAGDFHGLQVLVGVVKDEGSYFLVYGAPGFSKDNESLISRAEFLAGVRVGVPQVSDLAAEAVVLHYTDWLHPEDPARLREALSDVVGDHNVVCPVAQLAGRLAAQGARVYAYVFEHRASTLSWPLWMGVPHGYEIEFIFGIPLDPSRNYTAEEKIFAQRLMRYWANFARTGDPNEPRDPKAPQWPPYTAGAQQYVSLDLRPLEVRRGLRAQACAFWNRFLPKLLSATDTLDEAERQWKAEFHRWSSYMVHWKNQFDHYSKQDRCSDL

[9] = tested on: Rattus norvegicus; assay: Antiinflammatory activity in rat assessed as inhibition of the carrageenan-induced right hind paw edema at 0.1 mmol/kg; type: functional; parameters: scale not given: the % may be the effect or the level left
[10] = tested on: KB; assay: Cytotoxicity against human KB cells assessed as inhibition of cell growth incubated for 72 hrs by neutral red dye based colorimetric assay; type: functional
[11] = tested on: Planktothrix perornata; assay: Algicidal activity against Planktothrix perornata; type: functional, organism-based
[12] = tested on: Selenastrum capricornutum; assay: Algicidal activity against Selenastrum capricornutum; type: functional, organism-based
[13] = tested on: Human immunodeficiency virus 1; assay: Antiviral activity against HIV-1 3B in human H9 cells incubated for 4 days by ELISA; type: functional, organism-based; conditions: Human immunodeficiency virus 1, 3B, H9, 96 h
[14] = Therapeutic index, ratio of IC50 for human H9 cells to EC50 for HIV-1 3B in human H9 cells; type: toxicity, cell-based; conditions: read-out: Ratio IC50/EC50
[15] = Inhibition of ECE (unknown origin); parameters: species or system Homo sapiens
[16] = target: Chymotrypsinogen A (Bos taurus) (UniProt P00766); assay: Inactivation of bovine alpha-chymotrypsin assessed as Ki/KI ratio
[17] = target: Chymotrypsinogen A (Bos taurus) (UniProt P00766); assay: Inactivation of bovine alpha-chymotrypsin assessed as Ki/KI ratio at pH 7.5
[18] = target: Cannabinoid receptor 2 (Homo sapiens, UniProt P34972); assay: Binding affinity to CB2 (unknown origin)
Cannabinoid receptor 2, sequence (P34972 whole entry): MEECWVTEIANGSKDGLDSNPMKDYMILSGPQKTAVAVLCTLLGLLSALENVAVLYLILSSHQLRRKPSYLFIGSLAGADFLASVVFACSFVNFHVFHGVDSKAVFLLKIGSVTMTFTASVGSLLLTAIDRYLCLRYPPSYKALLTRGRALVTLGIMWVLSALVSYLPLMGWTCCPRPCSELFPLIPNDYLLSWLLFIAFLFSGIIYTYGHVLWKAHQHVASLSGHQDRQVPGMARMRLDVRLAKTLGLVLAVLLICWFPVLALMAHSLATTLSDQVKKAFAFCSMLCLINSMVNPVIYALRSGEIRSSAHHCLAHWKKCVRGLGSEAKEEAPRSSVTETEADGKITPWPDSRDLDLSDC

[19] = target: T1, Acetylcholinesterase (Electrophorus electricus, UniProt O42275); assay: Inhibition of electric eel AChE (type VI-S) using acetylthiocholine iodide as substrate preincubated for 15 mins followed by substrate addition by Ellman's method
T1 sequence (O42275 whole entry): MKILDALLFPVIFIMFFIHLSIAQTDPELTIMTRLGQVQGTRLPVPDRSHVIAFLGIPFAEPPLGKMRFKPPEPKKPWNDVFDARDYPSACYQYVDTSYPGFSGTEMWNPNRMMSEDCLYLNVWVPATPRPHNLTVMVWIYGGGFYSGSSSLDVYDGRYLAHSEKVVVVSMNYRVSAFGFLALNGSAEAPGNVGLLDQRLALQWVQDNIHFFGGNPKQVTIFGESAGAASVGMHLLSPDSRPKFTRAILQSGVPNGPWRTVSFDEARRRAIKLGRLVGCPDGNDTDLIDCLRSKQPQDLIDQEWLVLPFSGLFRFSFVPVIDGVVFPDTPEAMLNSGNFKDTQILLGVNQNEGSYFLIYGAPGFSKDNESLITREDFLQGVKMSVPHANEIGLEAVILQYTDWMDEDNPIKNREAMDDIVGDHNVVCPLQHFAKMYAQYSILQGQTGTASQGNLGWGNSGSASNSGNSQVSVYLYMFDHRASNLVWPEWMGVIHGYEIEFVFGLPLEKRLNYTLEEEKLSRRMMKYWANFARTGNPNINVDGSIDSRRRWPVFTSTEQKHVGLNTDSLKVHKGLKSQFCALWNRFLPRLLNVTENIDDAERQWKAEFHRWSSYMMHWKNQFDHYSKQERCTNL

[20] = target: T1, Acetylcholinesterase; assay: Competitive inhibition of electric eel acetyl cholinesterase measured for 3 mins by Ellman's method
[21] = Selectivity ratio of Ki for bovine 5-HT1B to rat 5-HT1B
[22] = Binding affinity to bovine 5-HT1B; parameters: species or system Bos taurus
[23] = target: 5-hydroxytryptamine receptor 1B (Rattus norvegicus, UniProt P28564); assay: Binding affinity to rat 5-HT1B
5-hydroxytryptamine receptor 1B, sequence (P28564 whole entry): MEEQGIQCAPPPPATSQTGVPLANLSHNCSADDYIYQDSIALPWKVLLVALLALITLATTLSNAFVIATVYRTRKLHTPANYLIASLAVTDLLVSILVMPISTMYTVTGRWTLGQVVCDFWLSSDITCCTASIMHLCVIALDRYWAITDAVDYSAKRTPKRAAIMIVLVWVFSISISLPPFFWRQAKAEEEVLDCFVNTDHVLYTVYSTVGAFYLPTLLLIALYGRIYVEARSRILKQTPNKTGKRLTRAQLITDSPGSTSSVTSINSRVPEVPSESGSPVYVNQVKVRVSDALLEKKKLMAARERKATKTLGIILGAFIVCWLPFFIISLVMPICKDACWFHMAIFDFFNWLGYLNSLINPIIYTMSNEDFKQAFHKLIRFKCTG

For `Cc1cccc2oc(=O)c3c(c12)O[C@@H](C)[C@@]3(C)CC(=O)C1OC1(C)C` (stereo partly specified), the IC50 [1] was over 50000 nM, the IC50 [2] was 13400 nM and the IC50 [3] was over 50000 nM.

Work on `CCC(C)c1cc(=O)oc2c(C(=O)CC(C)CO)c(O)c(CC=C(C)C)c(O)c12` (stereo unspecified) yielded an EC50 [4] of 11.1 µg/mL (≈ 27.6 µM), an EC50 [5] of 11.1 µg/mL (≈ 27.6 µM) and an EC50 [6] of 11.1 µg/mL (≈ 27.6 µM). It also gave an EC50 [7] of 11.1 µg/mL (≈ 27.6 µM).

With `COc1cc2cc(-c3ccc(C[N+](C)(C)Cc4ccccc4)cc3)c(=O)oc2cc1OC` the Ki [8] was 10.5 nM.

`CCN(Cc1ccccc1)Cc1ccc(-c2cc3cc(OC)c(OC)cc3oc2=O)cc1` gave a Ki [8] of 10.5 nM.

`COc1ccc2c(c1)c(CC(=O)O)c(C)n2C(=O)c1ccc(Cl)cc1` [INDOMETHACIN] showed an Activity [9] of 47%.

Work on `CC(C)CC(=O)c1c(O)cc(O)c2c(-c3ccccc3)cc(=O)oc12` [ISODISPAR B] yielded an IC50 [10] of 4 µg/mL (≈ 11.8 µM).

With `CC(C)CC(=O)N(C)CCc1ccc2c(c1)C=CC(C)(C)O2` the Activity [11] was 10 µM, the IC50 ([11]; Planktothrix perornata) was 2300 nM and the Activity [12] was 100 µM. The IC50 ([12]; Selenastrum capricornutum) was 12600 nM.

With `CC(C)=CCC/C(C)=C/CC[C@@]1(C)C=Cc2c(cc(C)c(C(=O)O)c2O)O1` [DAURICHROMENIC ACID] the EC50 [13] was 5.67 µg/mL (≈ 15.3 µM) and the selectivity ratio [14] was 3.71.

Work on `CC1(C)C=Cc2c(ccc3c2O[C@H](O)[C@H]2c4ccc(O)cc4O[C@@H]32)O1` yielded an IC50 [15] of 9000 nM.

In the case of `Cc1cc(=O)oc2c3c(ccc12)OC(C)(c1ccccc1)O3` (stereo unspecified), the Activity [9] is reported as 55%.

`C=C(C)C(O)Cc1c(O)c(C(=O)C(C)CC)c(O)c2c(CCC)cc(=O)oc12` (stereo unspecified) gave an IC50 [10] of 4 µg/mL (≈ 10.3 µM).

With `O=C(Oc1cccc(Cl)n1)c1cc2cc(CCl)ccc2oc1=O` the Ratio [16] was 1.1 10^5/M/s.

Compound `CCOC(=O)C1(CC)Oc2ccc3c(C)cc(=O)oc3c2O1` (stereo unspecified) has an Activity [9] of 55%.

With `COc1cc2cc(-c3ccc(CN(CCO)Cc4ccccc4)cc3)c(=O)oc2cc1OC` the Ki [8] was 10.5 nM.

With `O=C(Oc1cccc(Cl)c1)c1cc2cc(CCl)ccc2oc1=O` the Ratio [17] was 7.6 10^5/M/s.

For `CCCCCCC(C)(C)c1cc(O)c2c(c1)oc(=O)c1ccc(C)cc12`, the Ki [18] was 3.1 nM.

For `COc1cc2cc(-c3ccc(CN(C)Cc4ccccc4)cc3)c(=O)oc2cc1OC`, the Ki [8] was 44.5 nM.

`CC(C)=CCCC1(C)C=Cc2c(cc(O)c3c(=O)c4cccc(O)c4oc23)O1` (stereo unspecified) gave an IC50 [19] of 8470 nM, a Ki [19] of 3430 nM and a Ki [20] of 1900 nM.

In the case of `CCCCCCC(C)(C)c1cc(O)c2c(c1)oc(=O)c1ccc(OC)cc12`, the Ki [18] is reported as 6.7 nM.

Work on `C1=C(CN2CCOCC2)COc2c1cccc2OCC1COCCN1` (stereo unspecified) yielded a Ratio Ki [21] of 13, a Ki [22] of 630 nM and a Ki [23] of 47 nM.

With `CC(C)=CCc1c(O)c(C(=O)CC(C)CO)c2oc(=O)cc(-c3ccccc3)c2c1O` (stereo unspecified) the EC50 [4] was 11.1 µg/mL (≈ 26.3 µM), the EC50 [5] was 11.1 µg/mL (≈ 26.3 µM) and the EC50 [6] was 11.1 µg/mL (≈ 26.3 µM). The EC50 [7] was 11.1 µg/mL (≈ 26.3 µM).

In the case of `C=C(C)C(O)Cc1c(O)c(C(=O)C(C)C)c(O)c2c(-c3ccccc3)cc(=O)oc12` (stereo unspecified), the IC50 [10] is reported as 4 µg/mL (≈ 9.79 µM).

Compound `Cc1cccc2oc(=O)c3c(c12)O[C@H](C)[C@@]3(C)CC(=O)C1OC1(C)C` (stereo partly specified) has an IC50 [1] of over 50000 nM and an IC50 [3] of over 50000 nM.

`C=C(C)C(O)Cc1c(O)c(C(=O)C(C)CC)c(O)c2c(-c3ccccc3)cc(=O)oc12` (stereo unspecified) showed an IC50 [10] of 4 µg/mL (≈ 9.47 µM).
